Key:
[1] = tested on: Aβ40 and Aβ42 peptides in plasma and brain of TgCRND8 mice; assay: Long term treatment in adult transgenic CRND8 mice overexpressing βAPP: Aβ levels in plasma and brain by ELISA; assay type: in vivo, Mouse
Excerpt: Transgenic mice, TgCRND8, as those used in the short term treatment, overexpress a human APP gene with the Swedish and Indiana mutations leading to the production of high levels of the amyloid peptides and to the development of an early-onset, aggressive development of brain amyloidosis. The high levels of Aβ peptides and the relative overabundance of Aβ42 compared to Aβ40 are believed to be associated with the severe and early degenerative pathology observed. The pattern of amyloid deposition, presence of dystrophic neuritis, and cognitive deficit has been well documented in this transgenic mouse line. The levels of Aβ peptides in the brain of these mice increase dramatically as the animals age. While the total amyloid peptide levels increase from ˜1.6×10^5 pg/g of brain to ˜3.8×10^6 between 9 and 17 weeks of age.
The long-term therapeutic effects of compounds of the present invention on cerebral amyloid deposition and β-amyloid (Aβ) levels in the plasma and in the brains of transgenic mice, TgCRND8, expressing the human amyloid precursor protein (hAPP) was studied. These compounds were administered over an 8 or 16 week period at the end of which the levels of Aβ peptides in the plasma and brain of TgCRND8 animals were determined. The goal of this study was to evaluate the efficacy of the compounds at modulating the progression of the amyloidogenic process in the brain and in the plasma of a transgenic mouse model of Alzheimer's disease (AD)
The mice used in the study consisted of animals bearing one copy of the hAPP gene (+/−) from the 2nd and 3rd generation progenies (N2 and N3) derived from backcrosses from TgCRND8.FVB(N2)AJ(N3) with B6AF1/J hybrid animals. N1=TgCRND8.FVB(N2)AJ(N3)×B6AF1/J N2=TgCRND8.FVB(N2)AJ(N3).B6AF1/J(N1)×B6AF1/J N3=TgCRND8.FVB(N2)AJ(N3).B6AF1/J(N2)×B6AF1/a
(§1) The following abbreviations are used to designate these animals in the present study: TgCRND8.B6AF1/J(N2); TgCRND8.B6AF1/J(N3). Male and female transgenic mice were given daily subcutaneous (compound BX) or oral (compounds BW and BZ) administrations of the appropriate compounds for 8 or 16 weeks.
Baseline animals consisted of 9±1 week old naive TgCRND8.B6AF1/J animals from the 2nd and 3rd generations. These mice were used to determine the extent of cerebral amyloid deposits and Aβ levels in the plasma and brain of naive transgenic animals at the initiation of treatment.
(§2) Starting at 9 weeks of age (±1 week) animals received daily administration of their respective treatment for a period of 8 or 16 weeks, at a dose of 30 or 100 mg/kg at 10 ml/kg. The route of administration was subcutaneous for water-soluble compounds (Compound BX) and oral for compounds solubilized in methylcellulose 1% (MC 1%) (Compounds BW and BZ). At the end of the treatment periods, plasma and perfused brains were collected for quantification of Aβ levels.
Animal health was monitored, samples were collected and Aβ levels were measured as described above in the short term treatment study. Compounds were scored based on their ability to modulate levels of Aβ peptides in the plasma and the cerebral soluble/insoluble levels in the brain. Levels of Aβ observed in the plasma and brain of treated animals were compared to that of vehicle-treated (water) or methylcellulose-treated control groups and ranked according to the strength of the pharmacological effect. Increases in the levels of Aβ peptides are indicated using “+” symbols, while decreases in the levels of Aβ peptides are indicated using “−” symbols. The strongest effects are recorded as “+++” or “−−−” while the weakest are shown as “+” or “−”.
Specifically, increases in the levels of Aβ (relative to vehicle treated control) of 5 to 14% are scored as “+”; increases of 15 to 29% are scored as “++”; and increases of 30% or higher are scored as “+++”. Decreases in the levels of Aβ of 5 to 14% are scored as “−”; decreases of 15 to 29% are scored as “−−”; and decreases of 30% or more are scored as “−−−”. […]

[2] = tested on: amyloid plaques in the brains of TgCRND8 mice; assay: Histological ThioS (thioflavin S) study of brain plaques, long term treatment of TgCRND8 mice; assay type: in vivo, Mouse; conditions: 30 mg/kg; preliminary histochemical experiments
Description: as §1, §2
For the ThioS studies, the plaques in the brains of the mice were quantified as follows. Mice were transcardially perfused with saline solution. […] Image analysis to quantify the number of plaques and the area occupied by these plaques was performed using Image Pro Plus software (Media Cybernetics, MD, USA). […]
Specifically, increases in the areas and numbers of plaques (relative to vehicle treated control) of 10 to 19.99% are scored as “+”. Decreases in the areas and numbers of plaques of 10 to 19.99% are scored as “−”. Additionally, changes of 9.99% or less in either direction are scored as “0”.

SMILES | brain and plasma levels of Aβ ([1]; at 8 weeks) | plasma levels of Aβ ([1]; at 16 weeks) | amount of Aβ in the brain ([1]; at both 8 and 16 weeks) | area occupied by the plaques (ThioS staining of brain sections) [2] | number of plaques (ThioS staining of brain sections) [2]
O=S(=O)(O)CCCNC12CC3CC(CC(C3)C1)C2 [BW, 3-(1-adamantyl)amino-1-propanesulfonic acid] | dramatic decrease | dramatic decrease |  |  | 
CC(C)(C)NCCCS(=O)(=O)O [BX, 3-(t-butyl)amino-1-propanesulfonic acid] |  |  | dramatic decrease | decreased | decreased
